# Assay results published in patent publication US20180327367A1, “MACROCYCLIC BROAD SPECTRUM ANTIBIOTICS” (priority 2015, published 2018).
# pIC50: −log10 of the molar value. Where two headings read alike, the source gives them in different places.
# Columns and labels:
# [1] = system: Escherichia coli MC4100 harboring the IMP4213 (E. coli IMP); assay: microbe, parasite or virus in culture; assay type: cell-based; settings: Escherichia coli, 22 h, read-out: MIC (μg/mL) E. coli IMP, E. coli MC4100 IMP4213, increased outer-membrane permeability; 35° C., 22 hours
# Method in brief: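 Colonies grown 20 hours at 35° C were suspended in cation-adjusted Mueller Hinton Broth with 0.002% Tween-80. Cells were then added to 2-fold compound dilutions starting at 4 or 0.5 μg/mL, at OD600 0.0005.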
# [2] = system: Methicillin Resistant Staphylococcus aureus strain USA 300, NRS384; assay: Minimum inhibitory concentration, broth micro-dilution (CLSI), S. aureus; assay type: cell-based; settings: Staphylococcus aureus, MRSA / NRS 384 / USA300, 22 h, 35° C., 22 hours
# Method in brief: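 Ten-point 2-fold series began at 4 μg/mL in protocol 2 and 0.5 μg/mL in protocol 3, in cation-adjusted MHB plus 0.002% Tween-80. Bacteria added to OD600 0.0005 final and incubated at 35° C for 22 hours per CLSI microdilution.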
# [3] = system: Escherichia coli ATCC 25922; assay: Minimum inhibitory concentration, broth micro-dilution (CLSI), E. coli; assay type: cell-based; settings: Escherichia coli, ATCC25922, 22 h, 35° C., 22 hours
# [4] = biological target: T1, SpsB (Staphylococcus aureus signal peptidase) (Staphylococcus aureus, UniProt P0A070); assay: cell-based; assay type: biochemical; settings: SpsB IC50, whole-cell S. aureus (USA300 background, overexpressing SpsB) as SpsB source; fluorogenic peptide substrate, kinetic read 30 min
# T1 construct: This assay uses a suspension of Staphylococcus aureus cells as a source of SpsB instead of recombinant SpsB protein; endogenous in cells; host or cells: S. aureus, USA300 background, overexpressing SpsB (whole-cell suspension from frozen pellets)
# Method in brief: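 Whole S. aureus cells (USA300, overexpressing SpsB) in PBS with MgCl2, CaCl2 and 0.1% Tween-80 served as enzyme source, mixed with 20 μM stock of (Dabcyl)βAla-KPAKAAE(Edans) substrate before use. Fluorescence (ex 340/em 490 nm) read kinetically over 30 min. IC50 from reaction rate versus 11-point inhibitor concentration.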
# [5] = MRSA USA 300 NRS384, read-out: MIC (μg/mL) S. aureus
# [6] = E. coli ATCC 25922, read-out: MIC (μg/mL) E. coli
# T1 sequence (P0A070 whole entry): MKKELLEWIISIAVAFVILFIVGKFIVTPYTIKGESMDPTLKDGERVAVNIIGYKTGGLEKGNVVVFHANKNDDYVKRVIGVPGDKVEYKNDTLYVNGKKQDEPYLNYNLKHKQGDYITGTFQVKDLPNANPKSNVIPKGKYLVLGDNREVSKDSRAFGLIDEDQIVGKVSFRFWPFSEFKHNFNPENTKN
SMILES,MIC [1],"MIC [2, 5]","MIC [3, 6]",pIC50 [4],"MIC ([2]; read-out: MIC (μg/mL) S. aureus, MRSA USA 300 NRS384)","MIC ([3]; read-out: MIC (μg/mL) E. coli, E. coli ATCC 25922)"
CCCCCCCCc1ccc(C(=O)N[C@@H](CCN)C(=O)N(C)[C@@H]2C(=O)N[C@@H](C)C(=O)N[C@H](C(=O)NCC#N)Cc3ccc(OCCN)c(c3)-c3cc2ccc3OCCN)c(O)c1 [Compound 193],0.047 µg/mL,0.063 µg/mL,0.5 µg/mL,9.03,,
CCCCCCCc1ccc(C(=O)N[C@@H](CCCN)C(=O)N(C)[C@@H]2C(=O)N[C@@H](C)C(=O)N[C@H](C(=O)NCC#N)Cc3ccc(OCCN)c(c3)-c3cc2ccc3OCCN)c(C)c1 [Compound 194],0.0078 µg/mL,0.016 µg/mL,0.25 µg/mL,9.08,,
CCCCCCc1ccc(C(=O)N[C@@H](CCN)C(=O)N(C)[C@@H]2C(=O)N[C@@H](C)C(=O)N[C@H](C(=O)NCC#N)Cc3ccc(OCCN)c(c3)-c3cc2ccc3OCCN)cc1 [Compound 195],0.0078 µg/mL,0.063 µg/mL,0.5 µg/mL,8.85,,
CCCCCc1ccc(C(=O)N[C@@H](CCN)C(=O)N(C)[C@@H]2C(=O)N[C@@H](C)C(=O)N[C@H](C(=O)NCC#N)Cc3ccc(OCCN)c(c3)-c3cc2ccc3OCCN)c(C)c1 [Compound 196],0.013 µg/mL,0.094 µg/mL,0.67 µg/mL,8.96,,
CCCCCCc1ccc(C(=O)N[C@@H](CCN)C(=O)N(C)[C@@H]2C(=O)N[C@@H](C)C(=O)N[C@H](C(=O)NCC#N)Cc3ccc(OCCN)c(c3)-c3cc2ccc3OCCN)c(C)c1 [Compound 197],0.011 µg/mL,0.078 µg/mL,0.31 µg/mL,> 9.30,,
CCCCCCCc1ccc(C(=O)N[C@@H](CCN)C(=O)N(C)[C@@H]2C(=O)N[C@@H](C)C(=O)N[C@H](C(=O)NCC#N)Cc3ccc(OCCN)c(c3)-c3cc2ccc3OCCN)c(C)c1 [Compound 198],0.018 µg/mL,0.063 µg/mL,0.24 µg/mL,9.14,,
CCCCCCc1ccc(C(=O)N[C@@H](CCCCN)C(=O)N(C)[C@@H]2C(=O)N[C@@H](C)C(=O)N[C@H](C(=O)NCC#N)Cc3ccc(OCCN)c(c3)-c3cc2ccc3OCCN)c(C)c1 [Compound 199],0.031 µg/mL,0.031 µg/mL,3 µg/mL,9.14,,
CCCCCCc1ccc(C(=O)N[C@@H](CCN)C(=O)N(C)[C@@H]2C(=O)N[C@@H](C)C(=O)N[C@H](C(=O)NCC#N)Cc3ccc(OCCN)c(c3)-c3cc2ccc3OCCN)cn1 [Compound 201],0.031 µg/mL,0.19 µg/mL,2 µg/mL,8.85,,
CCCCCCCc1ccc(C(=O)N[C@@H](CN)C(=O)N(C)[C@@H]2C(=O)N[C@@H](C)C(=O)N[C@H](C(=O)NCC#N)Cc3ccc(OCCN)c(c3)-c3cc2ccc3OCCN)c(C)c1 [Compound 202],0.016 µg/mL,0.031 µg/mL,0.25 µg/mL,9.18,,
CCCCCCCc1cc(C)c(C(=O)N[C@@H](CCN)C(=O)N(C)[C@@H]2C(=O)N[C@@H](C)C(=O)N[C@H](C(=O)NCC#N)Cc3ccc(OCCN)c(c3)-c3cc2ccc3OCCN)cc1F [Compound 203],0.012 µg/mL,0.031 µg/mL,0.13 µg/mL,9.14,,
Cc1cc(CCC2CCCCC2)ccc1C(=O)N[C@@H](CCN)C(=O)N(C)[C@@H]1C(=O)N[C@@H](C)C(=O)N[C@H](C(=O)NCC#N)Cc2ccc(OCCN)c(c2)-c2cc1ccc2OCCN [Compound 204],0.0078 µg/mL,0.031 µg/mL,0.19 µg/mL,8.92,,
CCCCCCCc1cc(C)c(C(=O)N[C@@H](CCN)C(=O)N(C)[C@@H]2C(=O)N[C@@H](C)C(=O)N[C@H](C(=O)NCC#N)Cc3ccc(OCCN)c(c3)-c3cc2ccc3OCCN)c(Cl)c1 [Compound 205],0.016 µg/mL,0.063 µg/mL,0.25 µg/mL,9.07,,
CCCCc1ccc(C(=O)N[C@@H](CCN)C(=O)N(C)[C@@H]2C(=O)N[C@@H](C)C(=O)N[C@H](C(=O)NCC#N)Cc3ccc(OCCN)c(c3)-c3cc2ccc3OCCN)c(C)c1 [Compound 208],0.029 µg/mL,0.25 µg/mL,1.3 µg/mL,9.00,,
CCCCCCCCc1ccc(C(=O)N[C@@H](CCN)C(=O)N(C)[C@@H]2C(=O)N[C@@H](C)C(=O)N[C@H](C(=O)NCC#N)Cc3ccc(OCCN)c(c3)-c3cc2ccc3OCCN)c(OC)c1 [Compound 209],0.094 µg/mL,0.19 µg/mL,2 µg/mL,9.04,,
CCCCCCCCc1ccc(C(=O)N[C@@H](CCN)C(=O)N(C)[C@@H]2C(=O)N[C@@H](C)C(=O)N[C@H](C(=O)NCC#N)Cc3ccc(OCCN)c(c3)-c3cc2ccc3OCCN)c(Cl)c1 [Compound 210],0.029 µg/mL,0.094 µg/mL,0.11 µg/mL,9.10,,
CCCCCCCCc1ccc(C(=O)N[C@@H](CCN)C(=O)N(C)[C@@H]2C(=O)N[C@@H](C)C(=O)N[C@H](C(=O)NCC#N)Cc3ccc(OCCN)c(c3)-c3cc2ccc3OCCN)c(S(C)(=O)=O)c1 [Compound 212],0.047 µg/mL,0.031 µg/mL,2 µg/mL,9.21,,
CCCCCCCCc1nc(C)c(C(=O)N[C@@H](CCN)C(=O)N(C)[C@@H]2C(=O)N[C@@H](C)C(=O)N[C@H](C(=O)NCC#N)Cc3ccc(OCCN)c(c3)-c3cc2ccc3OCCN)s1 [Compound 213],0.023 µg/mL,0.047 µg/mL,2 µg/mL,9.19,,
Cc1cc(C2CCC2)ccc1C(=O)N[C@@H](CCN)C(=O)N(C)[C@@H]1C(=O)N[C@@H](C)C(=O)N[C@H](C(=O)NCC#N)Cc2ccc(OCCN)c(c2)-c2cc1ccc2OCCN [Compound 214],0.031 µg/mL,0.25 µg/mL,3 µg/mL,9.01,,
Cc1cc(C2CCCC2)ccc1C(=O)N[C@@H](CCN)C(=O)N(C)[C@@H]1C(=O)N[C@@H](C)C(=O)N[C@H](C(=O)NCC#N)Cc2ccc(OCCN)c(c2)-c2cc1ccc2OCCN [Compound 215],0.039 µg/mL,0.19 µg/mL,1.8 µg/mL,9.01,,
Cc1cc(C2CC2)ccc1C(=O)N[C@@H](CCN)C(=O)N(C)[C@@H]1C(=O)N[C@@H](C)C(=O)N[C@H](C(=O)NCC#N)Cc2ccc(OCCN)c(c2)-c2cc1ccc2OCCN [Compound 216],0.25 µg/mL,1 µg/mL,8 µg/mL,8.48,,
Cc1cc(CCC(C)C)ccc1C(=O)N[C@@H](CCN)C(=O)N(C)[C@@H]1C(=O)N[C@@H](C)C(=O)N[C@H](C(=O)NCC#N)Cc2ccc(OCCN)c(c2)-c2cc1ccc2OCCN [Compound 217],0.016 µg/mL,0.094 µg/mL,0.5 µg/mL,9.06,,
Cc1cc(CC(C)C)ccc1C(=O)N[C@@H](CCN)C(=O)N(C)[C@@H]1C(=O)N[C@@H](C)C(=O)N[C@H](C(=O)NCC#N)Cc2ccc(OCCN)c(c2)-c2cc1ccc2OCCN [Compound 218],0.031 µg/mL,0.25 µg/mL,2 µg/mL,9.06,,
Cc1cc(CC(C)(C)C)ccc1C(=O)N[C@@H](CCN)C(=O)N(C)[C@@H]1C(=O)N[C@@H](C)C(=O)N[C@H](C(=O)NCC#N)Cc2ccc(OCCN)c(c2)-c2cc1ccc2OCCN [Compound 219],0.023 µg/mL,0.19 µg/mL,1.5 µg/mL,8.72,,
C[C@@H]1NC(=O)[C@@H](N(C)C(=O)[C@H](CCN)NC(=O)c2ccc(C(C)(C)C)cc2C(F)F)c2ccc(OCCN)c(c2)-c2cc(ccc2OCCN)C[C@@H](C(=O)NCC#N)NC1=O [Compound 220],0.047 µg/mL,,,8.82,0.25 µg/mL,2.5 µg/mL
